# Assay results from ChEMBL document CHEMBL1201862, “PubChem BioAssay data set” (2004).
# Activity calls are given as the source filed them.
# Experiments:
# [1] = molecular target: Voltage-gated inwardly rectifying potassium channel KCNH2 (Homo sapiens, UniProt Q12809); settings: Potency;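 further: confirmatory quantitative high-throughput screen measuring inhibition of hERG channel activity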
# HEK293 = test: cells; type: functional, cell-based; settings: Homo sapiens
# [2] = molecular target: T1, Nuclear receptor subfamily 0 group B member 1 (Homo sapiens, UniProt P51843); test: Luminescence-based cell-based high throughput dose response assay for inhibitors of the orphan nuclear receptor subfamily 0, group B, member 1 (DAX1; NR0B1). [Related pubchem assays (depositor defined):AID504766, AID504790]; type: functional
# T1 sequence (P51843 whole entry): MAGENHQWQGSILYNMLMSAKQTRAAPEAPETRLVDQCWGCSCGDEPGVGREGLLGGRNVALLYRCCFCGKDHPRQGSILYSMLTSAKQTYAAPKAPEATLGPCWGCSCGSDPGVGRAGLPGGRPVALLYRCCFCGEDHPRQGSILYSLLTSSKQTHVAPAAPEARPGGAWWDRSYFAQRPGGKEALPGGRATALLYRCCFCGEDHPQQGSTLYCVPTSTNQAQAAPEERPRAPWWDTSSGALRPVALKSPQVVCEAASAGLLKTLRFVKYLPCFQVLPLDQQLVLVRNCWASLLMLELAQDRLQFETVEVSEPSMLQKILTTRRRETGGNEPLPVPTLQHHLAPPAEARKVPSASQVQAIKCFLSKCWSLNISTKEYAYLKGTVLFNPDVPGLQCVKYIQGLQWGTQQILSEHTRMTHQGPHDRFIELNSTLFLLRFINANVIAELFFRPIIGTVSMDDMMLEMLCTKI
# [3] = molecular target: Hepatocyte growth factor receptor (Homo sapiens, UniProt P08581); type: functional;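 further: kinase panel profiling across the kinome, with MET as the panel member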
# [4] = molecular target: T2, Serine/threonine-protein kinase D3 (Homo sapiens, UniProt O94806); type: functional;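 further: determined within a kinase panel screen, with PRKCN as the panel member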
# T2 sequence (O94806 whole entry): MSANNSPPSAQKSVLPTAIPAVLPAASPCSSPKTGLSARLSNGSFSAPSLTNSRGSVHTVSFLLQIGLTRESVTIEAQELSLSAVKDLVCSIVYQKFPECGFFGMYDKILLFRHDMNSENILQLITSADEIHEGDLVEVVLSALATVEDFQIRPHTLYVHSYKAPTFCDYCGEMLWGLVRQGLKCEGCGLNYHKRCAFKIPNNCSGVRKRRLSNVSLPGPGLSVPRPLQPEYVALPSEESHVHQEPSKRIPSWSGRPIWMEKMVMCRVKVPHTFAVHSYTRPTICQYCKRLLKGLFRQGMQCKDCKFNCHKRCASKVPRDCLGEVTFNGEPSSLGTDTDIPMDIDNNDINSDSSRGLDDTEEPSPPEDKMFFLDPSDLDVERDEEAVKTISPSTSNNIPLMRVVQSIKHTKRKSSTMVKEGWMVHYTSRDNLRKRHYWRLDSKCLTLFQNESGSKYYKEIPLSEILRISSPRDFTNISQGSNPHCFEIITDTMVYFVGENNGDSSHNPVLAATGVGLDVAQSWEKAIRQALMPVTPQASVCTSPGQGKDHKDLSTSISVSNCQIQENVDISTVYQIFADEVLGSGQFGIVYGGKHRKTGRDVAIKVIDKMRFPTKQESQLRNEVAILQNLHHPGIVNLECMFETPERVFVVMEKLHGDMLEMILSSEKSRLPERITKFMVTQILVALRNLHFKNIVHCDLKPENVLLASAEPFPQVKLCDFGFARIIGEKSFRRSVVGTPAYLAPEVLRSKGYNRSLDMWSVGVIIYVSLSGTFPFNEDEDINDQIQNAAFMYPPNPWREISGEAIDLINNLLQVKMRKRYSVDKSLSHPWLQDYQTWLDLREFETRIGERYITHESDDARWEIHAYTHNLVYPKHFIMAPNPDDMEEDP
# Hepatocyte growth factor receptor, sequence (P08581 whole entry): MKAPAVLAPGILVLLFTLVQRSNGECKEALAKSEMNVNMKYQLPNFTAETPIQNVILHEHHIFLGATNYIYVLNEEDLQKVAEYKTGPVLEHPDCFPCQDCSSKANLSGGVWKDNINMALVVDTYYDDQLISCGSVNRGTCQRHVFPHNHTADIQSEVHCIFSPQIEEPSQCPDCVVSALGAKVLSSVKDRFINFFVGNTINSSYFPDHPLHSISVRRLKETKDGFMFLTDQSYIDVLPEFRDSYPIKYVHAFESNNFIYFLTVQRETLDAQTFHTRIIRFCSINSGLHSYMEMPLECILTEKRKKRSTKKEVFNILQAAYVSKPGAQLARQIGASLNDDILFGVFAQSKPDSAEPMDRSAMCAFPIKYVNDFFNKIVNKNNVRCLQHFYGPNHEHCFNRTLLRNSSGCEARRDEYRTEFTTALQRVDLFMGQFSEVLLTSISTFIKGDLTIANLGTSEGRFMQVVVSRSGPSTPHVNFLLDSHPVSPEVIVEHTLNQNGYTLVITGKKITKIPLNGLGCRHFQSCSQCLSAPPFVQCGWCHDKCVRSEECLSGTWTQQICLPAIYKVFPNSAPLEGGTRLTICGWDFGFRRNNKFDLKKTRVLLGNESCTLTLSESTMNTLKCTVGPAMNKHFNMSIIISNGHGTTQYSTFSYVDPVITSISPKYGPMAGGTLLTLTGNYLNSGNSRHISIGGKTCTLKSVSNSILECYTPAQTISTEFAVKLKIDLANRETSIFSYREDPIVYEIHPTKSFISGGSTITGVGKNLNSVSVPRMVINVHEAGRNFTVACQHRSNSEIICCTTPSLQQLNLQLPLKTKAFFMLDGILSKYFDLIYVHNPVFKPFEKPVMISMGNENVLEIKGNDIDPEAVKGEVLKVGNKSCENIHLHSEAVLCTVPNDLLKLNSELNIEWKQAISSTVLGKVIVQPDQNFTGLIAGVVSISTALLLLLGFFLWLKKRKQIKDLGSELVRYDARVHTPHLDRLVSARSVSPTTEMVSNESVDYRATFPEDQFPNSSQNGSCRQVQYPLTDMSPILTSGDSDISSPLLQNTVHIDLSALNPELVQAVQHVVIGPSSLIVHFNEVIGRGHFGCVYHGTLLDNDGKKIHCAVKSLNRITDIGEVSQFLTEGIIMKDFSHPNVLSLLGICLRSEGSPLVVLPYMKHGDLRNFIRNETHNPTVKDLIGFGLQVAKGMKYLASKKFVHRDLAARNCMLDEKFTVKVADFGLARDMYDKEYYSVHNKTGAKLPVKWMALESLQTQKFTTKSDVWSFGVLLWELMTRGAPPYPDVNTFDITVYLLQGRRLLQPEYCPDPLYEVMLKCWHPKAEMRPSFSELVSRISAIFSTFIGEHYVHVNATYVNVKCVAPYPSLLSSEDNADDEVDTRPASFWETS
# Voltage-gated inwardly rectifying potassium channel KCNH2, sequence (Q12809 whole entry): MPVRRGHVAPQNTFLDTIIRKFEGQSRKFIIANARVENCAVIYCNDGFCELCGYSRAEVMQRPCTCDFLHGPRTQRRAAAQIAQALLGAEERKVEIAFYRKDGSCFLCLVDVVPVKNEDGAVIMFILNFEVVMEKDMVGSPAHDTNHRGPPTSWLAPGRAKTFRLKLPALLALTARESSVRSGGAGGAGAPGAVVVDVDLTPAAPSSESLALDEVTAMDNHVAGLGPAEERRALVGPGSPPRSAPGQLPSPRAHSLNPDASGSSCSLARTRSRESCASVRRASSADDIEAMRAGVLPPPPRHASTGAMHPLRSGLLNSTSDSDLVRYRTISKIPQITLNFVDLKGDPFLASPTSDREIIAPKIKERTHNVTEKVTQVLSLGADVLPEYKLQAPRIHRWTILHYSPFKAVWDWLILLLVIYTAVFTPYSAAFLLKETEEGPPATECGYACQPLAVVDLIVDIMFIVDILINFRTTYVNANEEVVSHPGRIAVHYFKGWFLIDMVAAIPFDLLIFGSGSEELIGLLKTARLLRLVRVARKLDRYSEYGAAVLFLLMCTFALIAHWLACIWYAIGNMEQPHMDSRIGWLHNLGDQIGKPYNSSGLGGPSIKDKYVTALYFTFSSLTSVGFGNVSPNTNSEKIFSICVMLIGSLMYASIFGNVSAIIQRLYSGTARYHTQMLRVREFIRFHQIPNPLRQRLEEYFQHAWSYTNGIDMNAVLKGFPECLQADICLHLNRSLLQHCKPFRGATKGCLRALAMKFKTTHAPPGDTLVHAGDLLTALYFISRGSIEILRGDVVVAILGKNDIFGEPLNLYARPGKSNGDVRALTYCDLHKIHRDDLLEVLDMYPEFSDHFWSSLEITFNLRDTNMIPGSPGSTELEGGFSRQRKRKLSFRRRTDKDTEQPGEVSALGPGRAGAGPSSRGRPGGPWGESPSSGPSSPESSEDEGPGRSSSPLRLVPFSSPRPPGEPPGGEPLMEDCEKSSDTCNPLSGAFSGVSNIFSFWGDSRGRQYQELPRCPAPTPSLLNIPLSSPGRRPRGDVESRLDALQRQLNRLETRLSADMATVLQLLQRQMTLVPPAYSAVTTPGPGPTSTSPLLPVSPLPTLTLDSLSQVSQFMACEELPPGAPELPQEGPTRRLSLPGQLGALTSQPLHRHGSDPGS
Compound,AC50 [1],IC50 (HEK293),IC50 [2],Ki [3],Ki [4]
C=CCN1CC[C@]23CCCCC2[C@H]1Cc1ccc(O)cc13 (some centres not stated),2.24 µM (inconclusive),–,–,–,–
O=C(CN1C(=O)NC2(CCCC2)C1=O)Nc1ccc(OC(F)(F)F)cc1,–,> 67.5 µM (inactive),> 67.5 µM (inactive),–,–
O=CNC(n1cnc2c(N3CCOCC3)ncnc21)C(Cl)(Cl)Cl (configuration not stated),–,> 67.5 µM (inactive),> 67.5 µM (inactive),–,–
CCCC(=O)Nc1cccc(-c2nc(Nc3ccc4[nH]ncc4c3)c3cc(OCCOC)ccc3n2)c1,–,–,–,2.51 µM (active),1.26 µM (active)
